# According to patent US20150031760A1, “PHARMACEUTICAL COMPOSITION FOR PREVENTING OR TREATING NERVOUS SYSTEM DISORDERS COMPRISING SULFURETIN OR PHARMACEUTICALLY ACCEPTABLE SALT THEREOF” (Research and Business Foundation SUNGKYUNKWAN UNIVERSITY, priority 2010, published 2015):
# Legend:
# [1] = Free radical scavenging ability (antioxidant effect), DPPH test; type: biochemical; conditions: 30 minutes
# Experimental: 2,2-diphenyl-1-picrylhydrazyl (DPPH) was dissolved in 99.5% ethanol to a concentration of 0.1 mM. Sulfuretin was dissolved and diluted in ethanol to concentrations of 0.1, 1, 5, 10, 25, 50 and 100 μg/ml. 10 μl of the sample was added to 90 μl of DPPH and admixed several times with a pipette, and the mixture was incubated at room temperature for 30 minutes, and the absorbance at 517 nm was measured.
# SH-SY5Y cells [2] = assay: Inhibition of ROS production (DCFH-DA fluorescence); type: cell-based, human; conditions: hydrogen peroxide-induced, 2 hours pretreatment
# Experimental: (§1) The incubator was maintained at a temperature of 37° C., and a mixed gas of 95% air and 5% CO2 was continuously supplied thereto to provide suitable conditions for cell culture. The cells were cultured in a 6-well plate or a 96-well plate at each of densities of 1×10^6 and 2×10^4 cells/well 24 hours before the experiment. […] Sulfuretin was used in ethanol and used at a final concentration of 0.1% or less.
# In order to measure ROS elimination activity, cells were labeled with DCFH-DA fluorescence, and quantitative analysis was performed using a fluorescence meter.
# Specifically, the 6-well plate in which the cells have been cultured was pretreated with sulfuretin for 2 hours, and then reacted with hydrogen peroxide for 30 minutes to induce ROS. Then, 10 μl of 10 mM DCFH-DA was added to the plate and allowed to react with the cells for 30 minutes. Herein, DCFH-DA in the incubator was covered with a foil such that it would not be exposed to light. The cells that reacted with the DCFH-DA fluorescent substance were detached using cold PBS and centrifuged at 400 g for 3 minutes. The centrifugation process was repeated twice to wash the fluorescent substance. The washed cells were briefly stirred with 1 ml of PBS, and 100 μl was dispensed into each of a fresh 96-well plate. Then, fluorescence was measured at an excitation wavelength of 488 nm and an emission wavelength of 515 nm using a fluorescence meter (Perkinelmer, USA).
# The measured value was substituted into the following equation to calculate ROS production:
# ROS production (%)=[(O.D. of control−O.D. of test group)/O.D. of control]×100
# SH-SY5Y cells [3] = assay: Inhibition of intracellular [Ca2+] influx (Fura-2-AM fluorescence); type: cell-based, human; conditions: hydrogen peroxide-induced, 30 minutes pretreatment
# Experimental: as §1
# In order to measure inhibitory effects on intracellular [Ca^2+] influx caused by oxidative stress, cells were labeled with Fura-2-AM fluorescence, and quantitative analysis was carried out using a fluorescence meter. Specifically, 10 μl of 5 μM Fura-2-AM was added to each well of the 6-well plate (in which the cells have been cultured) and then allowed to react for 30 minutes. Herein, Fura-2-AM in the incubator was covered with a silver foil such that it would not be exposed to light. After completion of the incubation, the plate was pretreated with sulfuretin for 30 minutes, and then reacted with hydrogen peroxide for 30 minutes to induce the intracellular influx of [Ca^2+]. Then, the cells that reacted with the Fura-2-AM fluorescent substance were washed twice with cold HEPES and detached with HEPES. Then, the cells were centrifuged at 400 g for 3 minutes. The supernatant was removed carefully, stirred weakly with 0.5 ml of HEPES buffer, and then 150 μl was dispensed into each well of a fresh 96-well plate. The fluorescence of the sample dispensed into the fresh 96-well plate was measured at an excitation wavelength of […] and an emission wavelength of 520 nm using a fluorescence meter (Perkinelmer, USA).
# The measured value was substituted into the following equation to calculate intracellular [Ca^2+] nM: […]
# mice [4] = assay: Scopolamine-induced cognitive impairment, spontaneous alternation behavior Y-maze test; type: in vivo; conditions: sulfuretin 1 mg/kg, p.o., one hour before test; scopolamine 0.5 mg/kg, i.p.
# Experimental: (§2) Male ICR mice (4-weeks-old, 18-20 g) were purchased from Koatech Co., Ltd. (Pyongtaek, Korea). Mice were housed 10 per cage, allowed access to water and food ad libitum, and maintained in constant temperature (23±1° C.) and humidity (55±5%) conditions under a 12 hour light/dark cycle (lights on 07:00 to 19:00 h). All experiments were conducted in accord with the NIH Guide for the Care and Use of Laboratory Animals and with the approval of the Institutional Animal Care and Use Committee of Sungkyunkwan University.
# The spontaneous alternation behavior was measured by Y-maze which consists of a horizontal maze (30 cm long and 5 cm wide, with walls 12 cm high) with three arms (labeled A, B, and C). The maze floor and walls are constructed of dark grey, polyvinyl plastic. Mice were initially placed within one arm, and the number of alternations (i.e., consecutive entry sequences of ABC, CAB, or BCA but not BAB) and the number of arm entries were manually recorded for each mouse over an 8 minutes period. One hour before each test, the mice were given sulfuretin (0.25, 0.5, or 1 mg/kg, p.o.). After 30 minutes, memory impairment was induced by administering scopolamine (0.5 mg/kg, i.p.). […] The percentage alternation was calculated according to the following equation: Percentage alternation=[(Number of alternations)/(Total arm entries−2)]×100. […]
# mice [5] = assay: Scopolamine-induced learning and memory deficits, step-through passive avoidance test; type: in vivo
# Experimental: as §2
# Assessment of the training or test trials of the passive avoidance test was carried out in identical illuminated and non-illuminated compartments (12×10×12 cm) containing 2-mm stainless steel rods spaced 0.5 cm apart. A 50 W lamp positioned 1 meter above both chambers illuminated the apparatuses. Briefly, the mice underwent two separate trials, a training trial and a test trial 24 hours later. For the training trial, mice were initially placed in the clear chamber. When they entered the dark chamber, the door closed and a 3-sec electrical foot shock (0.5 mA) was delivered through the stainless steel rods. One hour before each training trial, mice were given sulfretin (0.25, 0.5, or 1 mg/kg, p.o.). After 30 minutes, memory impairment was induced by administering scopolamine (0.5 mg/kg, i.p.). Twenty-four hours after the training trial, mice were placed in the illuminated chamber for the test trial. The time for the mouse to enter the dark compartment after the door opening was defined as latency for both training and test trials. Latencies were recorded for up to 300 s. To avoid a ceiling effect in unimpaired animals, sulfuretin alone was administered 1 hour before the training trial without scopolamine treatment. The intensity of electrical foot shock was set at 0.25 mA for 3 seconds. This lower intensity shock allowed for a behavioral window through which to detect any enhancing effect of sulfuretin.
compound,measurement,setting,value
O=C1/C(=C/c2ccc(O)c(O)c2)Oc2cc(O)ccc21 [sulfuretin],free radical scavenging ability (inhibition),[1]; sulfuretin 0.1 μg/ml,≥ 10%
same,free radical scavenging ability (inhibition),[1]; sulfuretin 1 μg/ml,≥ 18%
same,free radical scavenging ability (inhibition),[1]; sulfuretin 5 μg/ml,≥ 58%
same,free radical scavenging ability (inhibition),[1]; sulfuretin 10 μg/ml,≥ 70%
same,free radical scavenging ability (inhibition),[1]; sulfuretin 25 μg/ml,≥ 71%
same,free radical scavenging ability (inhibition),[1]; sulfuretin 50 μg/ml,≥ 73%
same,free radical scavenging ability (inhibition),[1]; sulfuretin 100 μg/ml,≥ 75%
same,ROS production,SH-SY5Y cells [2]; sulfuretin 0.1 μg/ml,≤ 147%
same,ROS production,SH-SY5Y cells [2]; sulfuretin 0.5 μg/ml,≤ 126%
same,ROS production,SH-SY5Y cells [2]; sulfuretin 1 μg/ml,≤ 123%
same,ROS production,SH-SY5Y cells [2]; sulfuretin 5 μg/ml,≤ 103%
same,intracellular [Ca2+] influx,SH-SY5Y cells [3]; sulfuretin 0.1 μg/ml,≤ 566 nM
same,intracellular [Ca2+] influx,SH-SY5Y cells [3]; sulfuretin 0.5 μg/ml,≤ 395 nM
same,intracellular [Ca2+] influx,SH-SY5Y cells [3]; sulfuretin 1 μg/ml,≤ 371 nM
same,intracellular [Ca2+] influx,SH-SY5Y cells [3]; sulfuretin 5 μg/ml,≤ 243 nM
same,decrease of spontaneous alternation behavior induced by scopolamine,mice [4],significantly inhibited
same,scopolamine-induced decrease of step-through latency time (test trial),"mice [5]; sulfuretin 1 mg/kg, p.o., one hour before training trial, scopolamine 0.5 mg/kg, i.p. (p<0.05)",blocked this decrease
same,latencies during the training trials,"mice [5]; sulfuretin p.o., training trial",did not change
